Source: paper PMC11528023, “Transport mechanism and structural pharmacology of human urate transporter URAT1” (Cell Research, 2024)

Target: T1, URAT1WT (Homo sapiens, UniProt Q96S37)
T1 construct: expressed in transfected cells; host or cells: HEK293 cells (ATCC, CRL-3216), transient transfection with Lipofectamine 3000
T1 sequence (Q96S37 1-553): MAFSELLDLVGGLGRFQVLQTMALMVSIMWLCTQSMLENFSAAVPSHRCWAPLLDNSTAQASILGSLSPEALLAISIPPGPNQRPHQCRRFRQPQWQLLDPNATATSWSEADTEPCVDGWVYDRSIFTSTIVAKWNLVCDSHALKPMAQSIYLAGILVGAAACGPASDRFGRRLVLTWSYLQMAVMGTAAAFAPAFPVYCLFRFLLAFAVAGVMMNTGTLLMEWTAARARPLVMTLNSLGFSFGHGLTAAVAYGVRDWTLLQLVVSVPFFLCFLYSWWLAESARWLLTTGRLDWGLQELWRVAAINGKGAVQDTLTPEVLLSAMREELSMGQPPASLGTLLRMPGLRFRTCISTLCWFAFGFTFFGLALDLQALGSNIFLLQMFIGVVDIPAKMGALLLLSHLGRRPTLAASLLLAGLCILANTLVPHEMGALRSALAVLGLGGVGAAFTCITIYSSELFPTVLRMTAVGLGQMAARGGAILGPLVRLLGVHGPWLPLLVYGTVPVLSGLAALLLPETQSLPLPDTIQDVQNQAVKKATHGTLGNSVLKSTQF
Assay: 14C-urate uptake inhibition in HEK293 cells expressing WT URAT1
Format: cell-based
Procedure: Data are shown as mean ± SD; n = 3 biological replicates. In a, b, uptake buffer: 20 mM HEPES pH 7.4, 125 mM sodium gluconate, 4.8 mM potassium gluconate, 1.2 mM monobasic potassium phosphate, 1.2 mM magnesium sulfate, 1.3 mM calcium gluconate, and 5.6 mM glucose. c Cryo-EM density maps of URAT1 in the apo and substrate-bound states. […] Putative lipid densities are in light cyan. d Cryo-EM density maps of URAT1 in the drug-bound states. […] Putative lipid densities are in light cyan. e Diagram of URAT1 topology. ECD, extracellular domain. f Structure of URAT1 in the apo state. g Slice view of URAT1 in the apo state, showing the central cavity and opening to the intracellular side.
Human embryonic kidney (HEK) 293 cells (ATCC, CRL-3216) were seeded onto poly(D-lysine)-coated 96-well plates at a density of 0.3 × 10^5 cells per well and cultured at 37 °C until reaching approximately 70%–80% confluence. The cells were transiently transfected with plasmids encoding the URAT1 WT or mutants using Lipofectamine 3000 (Invitrogen, L3000001), following the manufacturer’s protocol. The transfected cells were cultured at 37 °C for 12 h. Following this, 10 mM sodium butyrate was added, and the cells were further incubated at 30 °C for an additional 24 h. […]

Which IC50 does the source give for `O=C(c1cc(Cl)c(O)c(Cl)c1)N1CS(=O)(=O)c2ccccc21` [dotinurad] here?
Its IC50 is 170 nM.
